Assay results taken from ChEMBL document CHEMBL1201862, “PubChem BioAssay data set” (2004).
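Grown in 96-well plates, cells were treated for 48 hours with each compound at five concentrations. Insufficient inhibition: endpoint recorded as highest concentration tested. Here, GI50 denotes the concentration required for 50% inhibition of growth.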 Active and inactive are the calls of the source. Cut-off read from the data, not from the text of the source: active = GI50 up to about 1.1 µM and inactive = higher.

Key:
Experiment in all cases: growth of human tumour cells (NCI), 48 h
[1] = system: NCI-H460
[2] = system: CCRF-CEM
[3] = system: SN12C
[4] = system: EKVX
[5] = system: SK-MEL-5
[6] = system: NCI-H522
[7] = system: RPMI-8226
[8] = system: KM12
[9] = system: SR
[10] = system: RXF 393
[11] = system: HCT-116
[12] = system: HL-60
[13] = system: LOX IMVI
[14] = system: UO-31
[15] = system: COLO 205
[16] = system: UACC-257
[17] = system: A498
[18] = system: HOP-62
[19] = system: HT-29
[20] = system: SF-268

Measured: GI50

CC(C)(C)OC(=O)[C@H]1CCC(=S)N1Cc1ccccc1
inactive: [1] > 100 µM | [2] > 100 µM | [3] > 100 µM | [4] > 100 µM | [5] > 100 µM | [6] > 100 µM | [7] > 100 µM | [8] > 100 µM | [9] > 100 µM | [10] > 100 µM | [11] > 100 µM | [12] > 100 µM | [13] > 100 µM | [14] > 100 µM | [15] > 100 µM | [16] > 100 µM | [17] > 100 µM

C[C@]12CC[C@H](O)CC1=CC[C@@H]1[C@@H]2CC[C@]2(C)C(=O)/C(=C/c3ccc([N+](=O)[O-])cc3)C[C@@H]12
inactive: [1] 23.8 µM | [2] > 100 µM | [3] 11.2 µM | [18] 5.9 µM | [4] 8.91 µM | [5] 16.3 µM | [6] 12.2 µM | [19] 25.5 µM | [7] > 100 µM | [8] 33.7 µM | [9] 93.8 µM | [10] 8.95 µM | [20] 6.85 µM | [11] 13.7 µM | [12] 36.4 µM | [13] 10 µM | [14] 11 µM | [16] 21.1 µM | [17] 13.5 µM

C/C(N)=[N+](/C)[O-]
inactive: [1] 25.4 µM | [2] 23.4 µM | [3] 92.9 µM | [18] > 100 µM | [4] > 100 µM | [5] > 100 µM | [6] 72.6 µM | [19] 83.6 µM | [7] > 100 µM | [8] > 100 µM | [9] 23.8 µM | [10] > 100 µM | [20] 46.3 µM | [11] > 100 µM | [12] > 100 µM | [13] 15.5 µM | [14] > 100 µM | [15] 17.2 µM | [16] > 100 µM | [17] > 100 µM

COC(=O)[C@@H]1C[C@H](c2ccc(OC)c(OC)c2)OC1=O.COC(=O)[C@H]1C[C@H](c2ccc(OC)c(OC)c2)OC1=O
inactive: [1] > 100 µM | [2] > 100 µM | [3] > 100 µM | [18] > 100 µM | [4] > 100 µM | [5] > 100 µM | [6] > 100 µM | [19] > 100 µM | [7] > 100 µM | [8] > 100 µM | [9] > 100 µM | [10] > 100 µM | [20] > 100 µM | [11] > 100 µM | [12] > 100 µM | [13] > 100 µM | [14] > 100 µM | [15] > 100 µM | [16] > 100 µM | [17] > 100 µM

C/N=N/N(C)C(=O)NC
inactive: [1] > 100 µM | [2] > 100 µM | [3] > 100 µM | [18] > 100 µM | [5] > 100 µM | [6] > 100 µM | [19] > 100 µM | [7] > 100 µM | [8] > 100 µM | [9] > 100 µM | [10] > 100 µM | [20] > 100 µM | [11] > 100 µM | [12] > 100 µM | [13] > 100 µM | [14] > 100 µM | [15] > 100 µM | [17] > 100 µM

O=c1[nH]nc(Cc2ccc(Cl)cc2)n1/N=C\CC/C=N\n1c(Cc2ccc(Cl)cc2)n[nH]c1=O
inactive: [1] > 100 µM | [3] 59.2 µM | [18] 8.83 µM | [4] 21.3 µM | [5] 47.3 µM | [6] 25.1 µM | [19] > 26.2 µM | [7] > 33.3 µM | [8] > 100 µM | [9] 3.1 µM | [10] 15.1 µM | [20] 13.5 µM | [11] 27.2 µM | [12] > 24.2 µM | [13] 13.6 µM | [14] > 100 µM | [15] > 100 µM | [16] 50.9 µM | [17] > 69.5 µM

Cc1nc2sccn2c1C(=O)OCCOCCOCCOCCOC(=O)c1c(C)nc2sccn12
inactive: [1] 80.7 µM | [3] > 100 µM | [18] > 100 µM | [4] 32.1 µM | [5] 11.7 µM | [6] 48.8 µM | [19] > 100 µM | [7] 52.7 µM | [8] 49.7 µM | [9] 45.9 µM | [10] > 100 µM | [20] > 100 µM | [11] > 100 µM | [12] 15.7 µM | [13] 57.3 µM | [14] 70.5 µM | [15] 86.7 µM | [16] 16.5 µM | [17] > 100 µM

CN1C(=O)C(O)CC1c1ccccc1C(F)(F)F (centres undefined)
inactive: [1] > 100 µM | [2] > 100 µM | [3] > 100 µM | [18] > 100 µM | [4] > 100 µM | [5] > 100 µM | [6] > 100 µM | [19] > 100 µM | [7] > 100 µM | [8] > 100 µM | [9] > 10 µM | [10] > 100 µM | [11] > 100 µM | [12] > 100 µM | [13] > 100 µM | [14] > 100 µM | [15] > 100 µM | [16] > 100 µM | [17] > 100 µM

COc1ccc(C(=O)N/N=C/c2c(C)n(C)n(-c3ccccc3)c2=O)cc1
inactive: [1] > 100 µM | [2] > 100 µM | [3] > 100 µM | [18] > 100 µM | [4] > 100 µM | [6] > 100 µM | [19] > 100 µM | [7] > 100 µM | [8] > 100 µM | [9] > 100 µM | [10] > 100 µM | [20] > 100 µM | [11] > 100 µM | [12] > 100 µM | [13] > 100 µM | [14] > 100 µM | [15] > 100 µM | [16] > 100 µM | [17] > 100 µM

CC(CO)CCC(O)C(C)(O)C1CCC2(O)C3=CC(=O)C4CC(O)C(O)CC4(C)C3CCC12C (centres undefined)
inactive: [1] > 100 µM | [2] 81.3 µM | [3] > 100 µM | [18] > 100 µM | [4] > 100 µM | [5] > 100 µM | [6] > 100 µM | [19] > 100 µM | [7] > 100 µM | [8] > 100 µM | [9] > 100 µM | [10] > 100 µM | [11] > 100 µM | [12] > 100 µM | [13] > 100 µM | [14] > 100 µM | [15] > 100 µM | [16] > 100 µM | [17] > 100 µM
